Data reported in patent US6087337A, “Method for treating benign and malignant proliferative skin disease” (Biomeasure Inc., priority 1993, dated 2000).

Tests used:
[1] = test system: B16-F10 melanoma; test: Response of intradermally implanted B16-F10 melanoma xenografts to topically applied Somatuline BIM-23014C; assay type: in vivo, BALB/c derived athymic nude female mice
Procedure: Response of Intradermally Implanted B16-F10 Melanoma Xenografts to Topically Applied Somatuline BIM-23014C
Eighteen BALB/c derived athymic nude female mice were implanted intradermally (ID), on the right flank, with a 0.02 to 0.05 ml suspension of in vitro propagated B16-F10 melanoma cells suspended in a normal saline solution. Implantation was done with a 23 gauge needle attached to a 1.0 ml syringe on day 0. Such an intradermal implant of the murine B16-F10 melanoma is essentially orthotopic and gives rise to an extremely fast growing tumor. By day 2, flat melanotic growths were evident at the injection site. The lesions resembled in situ melanomas.
Somatuline (D-β-Nal-Cys-Tyr-D-Trp-Lys-Val-Cys-Thr-NH2, available from Biomeasure, Inc. under the product code BIM-23014C) was added to a 50% DMSO in saline solution at a concentration of 10 mgs/ml. After wiping the skin with a gauze pad wet with isopropyl alcohol, a drop (approximately 0.05 ml) of the Somatuline solution was applied to the skin surface of the mice over the melanotic lesion. The solution was rubbed into the skin for approximately 1 minute with a latex gloved (Baxter Scientific Products/Flexam) finger. Well over half of the drop of Somatuline was not absorbed and was lost after the rubbing-in procedure. The controls were treated identically with 50% DMSO in saline solution without any somatostatin analog. Topical treatments were applied twice daily for 11 days beginning on day 3 post implantation.

[2] = test system: insulin, glucagon, and growth hormone release; details: times more potent than naturally occurring somatostatin; cited from earlier work

Compound: CC(C)[C@@H]1NC(=O)[C@H](CCCCN)NC(=O)[C@@H](Cc2c[nH]c3ccccc23)NC(=O)[C@H](Cc2ccc(O)cc2)NC(=O)[C@@H](NC(=O)[C@H](N)Cc2ccc3ccccc3c2)CSSC[C@@H](C(=O)N[C@H](C(N)=O)[C@@H](C)O)NC1=O [BIM-23014C, D-β-Nal-Cys-Tyr-D-Trp-Lys-Val-Cys-Thr-NH2]
- Tumor Wt. (mgs) Day 12 ([1]; 0.05 ml topical of DMSO/Saline vehicle containing 10 mg/ml, b.i.d., q.d. 3-14, intradermal B16-F10 implant in nude mice, day 12): 185.9 ± 47 mgs
- growth of the melanotic lesion (tumor growth curves FIG. 1, photographs FIG. 2, days 4, 7, 11) ([1]; topical Somatuline solution 10 mgs/ml in 50% DMSO in saline, twice daily, compared to control mice): clear growth inhibition
- % T/C ([1]; tumor weight day 12, treated vs DMSO/Saline vehicle control, 0.05 ml topical, 10 mg/ml, b.i.d., q.d. 3-14): 35%

Compound: cyclo(N-Me-Ala-Tyr-D-Trp-Lys-Val-Phe)
- potency relative to naturally occurring somatostatin for the inhibition of insulin, glucagon, and growth hormone release [2]: 50-100 times
